Data set [1] concerns the target T1, WASp (Homo sapiens, UniProt P42768).
T1 construct: expressed in transfected cells; host or cells: 293T cells, calcium-phosphate transfection
T1 sequence (P42768 1-502): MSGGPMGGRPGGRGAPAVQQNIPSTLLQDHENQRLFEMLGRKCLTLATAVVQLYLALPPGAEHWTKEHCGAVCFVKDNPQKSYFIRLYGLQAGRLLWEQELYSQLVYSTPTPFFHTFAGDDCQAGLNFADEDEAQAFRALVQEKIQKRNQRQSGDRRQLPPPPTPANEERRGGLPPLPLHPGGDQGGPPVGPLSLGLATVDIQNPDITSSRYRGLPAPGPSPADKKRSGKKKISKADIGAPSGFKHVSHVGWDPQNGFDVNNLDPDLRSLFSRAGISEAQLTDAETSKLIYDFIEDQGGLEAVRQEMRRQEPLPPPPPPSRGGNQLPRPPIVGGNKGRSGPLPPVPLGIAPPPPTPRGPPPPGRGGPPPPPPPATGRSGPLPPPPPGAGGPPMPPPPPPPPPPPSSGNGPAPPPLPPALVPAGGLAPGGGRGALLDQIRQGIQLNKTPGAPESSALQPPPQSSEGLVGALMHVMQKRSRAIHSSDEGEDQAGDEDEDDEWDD
The experiment in a line: YFP-WASp expression in 293T cells treated with compounds, densitometric Western blot analysis. Format: cell-based. Conditions: for effect on WASp expression in cells: 293T cells transfected with YFP-WASp; for Relative expression: YFP-WASp expression in transfected 293T cells relative to DMSO solvent control, compound 10-80 μM, overnight. Here is the method:
Compounds were obtained and from ChemBridge Corporation. San Diego, Calif., USA. Of the compounds obtained, 14 were considered potential agents for modulating WASp expression, by their potential to bind to WASp. The 14 compounds were tested in 293T cells using the following procedure.
The compounds were individually dissolved in DMSO to make a stock solution of 20 millimolar (mM) and kept stored at −20° C. 293T cells were prepared to mid log phase, ˜60-80% confluence, and were transfected with 15 μg of yellow-fluorescent protein, YFP-WASp plasmid (6023), using a Calcium-phosphate transfection protocol. Cells were collected and counted. 1-2×10^6 cells per sample in 6-well supplemented with 2-4 ml complete (10% FCS) DMEM medium (0.5×10^6 cells/ml). Cells were plated in 6 wells (0.5×10^6 cells/ml×Number of samples) and pre-incubate at 37°, 5% CO2 for at least 4 h (for the cells to adhere. 1 ml of the medium in which the cells were grown is taken, and added to the compound (10-80 μM). The medium, with the compound, was added back to the cells in the plate, drop-wise. Cells were incubated overnight at 37° C., 5% CO2. Densitometric analysis of YFP-WASp expression in the cells treated with the compounds, using Western blot analysis. The compounds with a relative 1.5-fold change (either increase or decrease) of expression relative cells which were exposed to DMSO solvent control, are listed in table 2 below. Table 2 lists the compounds' modulation of WASp expression levels as a function of relative expression of WASp in relation to control.
A general note: Immunoblotting shows a protein as a band on a membrane.

Data set [2] concerns WASp. The experiment in a line: WASp gene silencing by siRNA in T cell leukemic cells, Western blot. Format: cell-based. Here is the method: As shown in the previous examples, WASp is overexpressed in malignant cells. Gene silencing of WASp expression using siRNA was tested. WASp was silenced using commercially available siRNA oligonucleotides. A mixture of the following oligonucleotides, each in the form of double-stranted siRNA duplex with its corresponding sequence at an amount of 500 pico-mole was introduced to 1×10^7 cells:
These experiments were performed in T cell leukemic cells. Silencing efficiency of about 90% was achieved 48 hours after transfection, when compared to non-specific (N.S) siRNA-treated cells.
A number of siRNA duplexes were tested in cells as in example 1E. The following double-stranded siRNA sequences were used: SEQ ID NO. 1 and its complementary sequence; SEQ ID NO. 2 and its complementary sequence; SEQ ID NO. 3 and its complementary sequence; SEQ ID NO. […] and its complementary sequence (designated as 1-4). 500 picomole of each double-stranded siRNA was used. In addition, a nonsense siRNA sequence (designated as “N.S. siRNA”) was used as a control. Control N.S. siRNA was made from 125 duplexes of each of the siRNA molecules in Table 5:
In addition, a mixture of the siRNAs comprising SEQ ID NOS. 1-4 (designated as “Mix”) was also used, comprising 125 picomole of each. Upon analysis with Western blot, it was shown that all siRNA duplexes were effective in downregulating WASp, with the siRNA of SEQ. ID NO.

For the molecule `COCC1CCN(c2ccc(C(=O)N3CCC(N4CCOCC4)CC3)cn2)C1` (centres unmarked) [Compound 4, 4-[1-({6-[3-(methoxymethyl)pyrrolidin-1-yl]pyridin-3-yl}carbonyl)piperi-din-4-yl]morpholine], at WASp [1], the “effect on WASp expression in cells” value is recorded as “increase WASp expression” and the Relative expression is 1.5.

In the case of `CC(=O)N[C@H]1C[C@@H](c2ccc3c(c2)nnn3C)O[C@@H](c2ccc(Cl)cc2)C1` [Compound 6, N-[(2R,4R,6S)-2-(4-chloro-phenyl)-6-(1-methyl-1H-1,2,3-benzotriazol-5-yl)tetrahydro-2H-pyran-4-yl]acetamide], on WASp [1], the “effect on WASp expression in cells” value is “increase WASp expression” and the Relative expression turned out to be 6.7.

Regarding `Cc1cc(C)n(C2CCN(C(=O)c3cc(COc4ccccc4)[nH]n3)C2)n1` (centres unmarked) [Compound 7, 3,5-dimethyl-1-(1-{[5-(phenoxy-methyl)-1H-pyrazol-3-yl]carbonyl}pyrrolidin-3-yl)-1H-pyrazole], on WASp [1], the “effect on WASp expression in cells” value is given as “increase WASp expression” and the Relative expression was 2.1.

Consider `CC(C)c1n[nH]c2c1CN(C(=O)c1cccc(C#CC(C)(C)O)c1)CC2` [Compound 10, 4-{3-[(3-isopropyl-1,4,6,7-tetrahydro-5H-pyrazolo[4,3-c]pyridin-5-yl)carbonyl]phenyl}-2-methylbut-3-yn-2-ol], for which, at WASp [1], the “effect on WASp expression in cells” value was “effective in decreasing WASp expression” and the Relative expression turned out to be 0.6.

For `COc1ccc(CN2C(=O)N(CC(C)C)C3(CCN(C4Cc5ccccc5C4)CC3)C2=O)cc1` [Compound 13, 8-(2,3-dihydro-1H-inden-2-yl)-1-isobutyl-3-(4-methoxy-benzyl)-1,3,8-triazaspiro[4.5] decane-2,4-dione], on WASp [1], the “effect on WASp expression in cells” value is reported as “effective in decreasing WASp expression” and the Relative expression is listed as 0.3.

Regarding `COc1ccccc1-c1cccc(C(=O)NC(C)Cc2ccccn2)c1` (centres unmarked) [Compound 14, 2′-methoxy-N-(1-methyl-2-pyridin-2-ylethyl)biphenyl-3-carboxamide], on WASp [1], the “effect on WASp expression in cells” value is listed as “effective in decreasing WASp expression” and the Relative expression turned out to be 0.5.

B1: Mix: mixture of the double-stranded siRNA duplexes of SEQ ID NOS. 1-4 (nucleic acid)
chain 1: UGACUGAGUGGCUGAGUUA
chain 2: GACCUAGCCCAGCUGAUAA
chain 3: GAAUGGAUUUGACGUGAAC
chain 4: GCCGAGACCUCUAAACUUA
modifications: listed as RNA, chemistry not given here
Regarding B1, the Silencing efficiency entry in the data set on WASp [2] (48 hours after transfection, T cell leukemic cells, 500 pico-mole to 1×10^7 cells, compared to non-specific (N.S) siRNA-treated cells) was “about 90%”.

B2: N.S. siRNA: nonsense siRNA control made from duplexes of SEQ ID NO. 9-12 (Table 5) (nucleic acid)
chain 1: UAGCGACUAAACACAUCAAUAGGCUAUGAAGAGAUAC
chain 2: AUGUAUUGGCCUGUAUUAG
chain 3: AUGAACGUGAAUUGCUCAA
chain 4: UGGUUUACAUGUCGACUAA
modifications: listed as RNA, chemistry not given here
As to B2, the “downregulating WASp” value in the data set on WASp [2] (Western blot, 500 picomole double-stranded siRNA, cells as in example 1E, FIG. 2) was “ineffective in downregulating WASp”.

For the origin of these results see patent US10765631B2, “Liposomes for modulating Wiskott-Aldrich syndrome protein” (BAR-ILAN UNIVERSITY, priority 2013, dated 2020).
